Laboratory results as given in the supplement of paper PMC10307832.

Columns and labels:
Experiment in all cases: relative viability (nuclei count vs DMSO), 5 days (fraction); higher = more cells survive
AZD1208 + Decitabine = compound: N[C@@H]1CCCN(c2c(/C=C3\SC(=O)NC3=O)cccc2-c2ccccc2)C1 [AZD1208] + Nc1ncn([C@H]2C[C@H](O)[C@@H](CO)O2)c(=O)n1 [Decitabine] (partner 2 µM)
In short: (§1)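 After 5 days of treatment, lung cancer cells in 1536-well plates were fixed and stained in a single step (final 0.05% Triton X-100, 1% formaldehyde, 1 ug/ml Hoechst) and their nuclei counted on 4× images. Treatment had been applied by pin tool the day after seeding as one drug alone or as a fixed anchor-drug dose with five library-drug doses (not always all listed) in √10 steps. Relative viability is the nuclei count of treated wells divided by that of vehicle wells, and values are medians of duplicate plates.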

AZD1208 + Palbociclib = compound: N[C@@H]1CCCN(c2c(/C=C3\SC(=O)NC3=O)cccc2-c2ccccc2)C1 [AZD1208] + CC(=O)c1c(C)c2cnc(Nc3ccc(N4CCNCC4)cn3)nc2n(C2CCCC2)c1=O [Palbociclib] (partner 0.5 µM)
In short: as §1

XMD14-99 + Crizotinib = compound: CN1CCN(CC1)C2=CC(=C(C=C2)NC3=NC(=C(S3)C(=O)C4=C(C=CC=C4Cl)Cl)N)OC [XMD14-99] + C[C@@H](Oc1cc(-c2cnn(C3CCNCC3)c2)cnc1N)c1c(Cl)ccc(F)c1Cl [Crizotinib] (partner 1 µM)
In short: as §1

XMD14-99 + Linsitinib = compound: CN1CCN(CC1)C2=CC(=C(C=C2)NC3=NC(=C(S3)C(=O)C4=C(C=CC=C4Cl)Cl)N)OC [XMD14-99] + C[C@]1(O)C[C@@H](c2nc(-c3ccc4ccc(-c5ccccc5)nc4c3)c3c(N)nccn32)C1 [Linsitinib] (partner 1 µM)
In short: as §1

| Cell Line | relative viability (AZD1208 + Decitabine; first compound 0.08 µM) | relative viability (AZD1208 + Decitabine; first compound 0.253 µM) | relative viability (AZD1208 + Decitabine; first compound 0.8 µM) | relative viability (AZD1208 + Decitabine; first compound 2.53 µM) | relative viability (AZD1208 + Decitabine; first compound 8 µM) | relative viability (AZD1208 + Palbociclib; first compound 0.08 µM) | relative viability (AZD1208 + Palbociclib; first compound 0.253 µM) | relative viability (AZD1208 + Palbociclib; first compound 0.8 µM) | relative viability (AZD1208 + Palbociclib; first compound 2.53 µM) | relative viability (AZD1208 + Palbociclib; first compound 8 µM) | relative viability (XMD14-99 + Crizotinib; first compound 0.08 µM) | relative viability (XMD14-99 + Crizotinib; first compound 0.8 µM) | relative viability (XMD14-99 + Crizotinib; first compound 2.53 µM) | relative viability (XMD14-99 + Crizotinib; first compound 8 µM) | relative viability (XMD14-99 + Linsitinib; first compound 0.08 µM) | relative viability (XMD14-99 + Linsitinib; first compound 0.8 µM) | relative viability (XMD14-99 + Linsitinib; first compound 2.53 µM) | relative viability (XMD14-99 + Linsitinib; first compound 8 µM) |
| --- | --- | --- | --- | --- | --- | --- | --- | --- | --- | --- | --- | --- | --- | --- | --- | --- | --- | --- |
| NCI-H522 | 0.678 | 0.634 | 0.73 | 0.643 | 0.636 | 0.915 | 1.09 | 0.896 | 0.942 | 0.76 | – | – | – | – | – | – | – | – |
| NCI-H596 | 0.847 | 1.01 | 0.901 | 0.902 | 0.756 | – | – | – | – | – | 1.01 | 0.974 | 1.04 | 1.02 | 1.06 | 1.05 | 1.08 | 1.04 |
| NCI-H1299 | – | – | – | – | – | – | – | – | – | – | 0.946 | 0.898 | 0.998 | 0.769 | 0.95 | 0.905 | 0.908 | 0.846 |
| NCI-H1395 | 0.724 | 0.785 | 0.714 | 0.719 | 0.685 | 0.598 | 0.653 | 0.572 | 0.62 | 0.521 | – | – | – | – | 1.04 | 1.02 | 0.955 | 0.784 |
| NCI-H1563 | – | – | – | – | – | – | – | – | – | – | 0.858 | 0.905 | 0.896 | 0.786 | 1.21 | 1.12 | 1.17 | 1.08 |
| NCI-H1648 | 0.631 | 0.476 | 0.464 | 0.547 | 0.567 | 0.277 | 0.255 | 0.244 | 0.227 | 0.294 | – | – | – | – | – | – | – | – |
| NCI-H1650 | 0.513 | 0.502 | 0.403 | 0.376 | 0.449 | 0.331 | 0.401 | 0.311 | 0.323 | 0.35 | 1 | 0.951 | 1.09 | 0.849 | – | – | – | – |
| NCI-H1703 | – | – | – | – | – | – | – | – | – | – | 0.611 | 0.52 | 0.58 | 0.587 | 0.843 | 0.888 | 0.752 | 0.57 |
| NCI-H1793 | 0.447 | 0.448 | 0.509 | 0.463 | 0.363 | 0.293 | 0.305 | 0.273 | 0.304 | 0.288 | – | – | – | – | 0.9 | 0.979 | 0.703 | 0.738 |
| NCI-H2170 | 0.439 | 0.498 | 0.417 | 0.481 | 0.369 | 0.401 | 0.455 | 0.368 | 0.357 | 0.247 | 1.14 | 1.21 | 1.26 | 0.937 | – | – | – | – |
| NCI-H2228 | – | – | – | – | – | 0.764 | 0.911 | 0.804 | 0.6 | 0.656 | 0.37 | 0.447 | 0.48 | 0.301 | 0.702 | 0.524 | 0.476 | 0.221 |
| NCI-H2342 | 0.772 | 0.736 | 0.595 | 0.674 | 0.581 | 0.494 | 0.456 | 0.494 | 0.548 | 0.456 | – | – | – | – | – | – | – | – |
| SW 900 | 0.456 | 0.407 | 0.382 | 0.395 | 0.444 | 0.524 | 0.49 | 0.497 | 0.571 | 0.511 | – | – | – | – | – | – | – | – |
